Laboratory results taken from patent US5990158A, “Carboxylic acid derivatives, method of manufacturing the same and therapeutic agents containing these compounds” (Kotobuki Seiyaku Co., Ltd., priority 1996, dated 1999).

Columns and labels:
MMP-9 (gelatinase B) = target: T1, MMP-9 (gelatinase B) (Homo sapiens, UniProt P14780); assay: MMP-9 (gelatinase B) inhibitory activity, FITC-labeled type IV collagen degradation; assay type: biochemical; settings: 50% inhibition of collagen type IV degradation; MMP-9 derived from human fibrosarcoma; 42° C., 4 h
T1 construct: purchased Yagai Co. Ltd; host or cells: human fibrosarcoma
T1 sequence (P14780 94-707): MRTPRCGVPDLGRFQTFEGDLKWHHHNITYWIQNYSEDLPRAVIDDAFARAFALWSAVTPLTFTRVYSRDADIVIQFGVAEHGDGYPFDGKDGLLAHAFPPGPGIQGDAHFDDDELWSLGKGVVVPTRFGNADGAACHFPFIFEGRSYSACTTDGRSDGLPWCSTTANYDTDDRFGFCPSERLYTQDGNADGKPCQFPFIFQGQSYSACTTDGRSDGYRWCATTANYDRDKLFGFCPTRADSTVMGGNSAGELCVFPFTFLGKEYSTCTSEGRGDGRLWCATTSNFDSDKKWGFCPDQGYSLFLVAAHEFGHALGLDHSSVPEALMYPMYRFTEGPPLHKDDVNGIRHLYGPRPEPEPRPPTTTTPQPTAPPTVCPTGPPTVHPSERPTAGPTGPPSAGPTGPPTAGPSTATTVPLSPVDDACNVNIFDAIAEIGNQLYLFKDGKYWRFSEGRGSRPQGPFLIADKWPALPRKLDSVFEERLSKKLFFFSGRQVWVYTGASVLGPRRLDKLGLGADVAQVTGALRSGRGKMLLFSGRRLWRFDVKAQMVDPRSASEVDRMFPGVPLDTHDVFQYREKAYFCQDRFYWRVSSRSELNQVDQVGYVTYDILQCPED
Procedure: (§1) Experiment 2: MMP-2 (gelatinase A) and MMP-9 (gelatinase B) inhibitory activities.
(§2) Pro MMP-2 was obtained from culture medium separated from human pro-MMP-2 cDNA tranfected COS-1 cells. It was activated by 1 mM (p-aminophenyl)mercury acetic acid, and MMP-9, derived human fibrosarcome,was purchased from Yagai Co. Ltd. Inhibition of both enzyme activities were estimated by enzyme assay using type IV collagenase activity assay kit (Yagai Co. Ltd., Biswaz, C. et al., J. Cell.Biochem., 28, 39 (1984)). MMP-2 or MMP-9 (0.01 U/ml), test compound (several concentrations), and FITC-labeled type IV collagen (derived bovine placenta, 25 μg) were incubated in 100 μl of 0.05M Tris - HCl buffer (pH 7.5) containing 200 mM NaCl and 5 mM CaCl2 at 42° C. for 4 h. Inhibitory activity of compound was evaluated by same as that of MMP-1 assay. Unchanged type IV collagen was precipitated by centrifugation, and the degradation percent of substrate was calculated by comparison with a fluorescence intensity of heat denatured substrate as 100%. Inhibition of enzyme activity was expressed as an IC50 value which was the concentration of test compound necessary to produce 50% inhibition of collagen type IV degradation by enzyme.

MMP-2 (gelatinase A) = target: T2, MMP-2 (gelatinase A) (Homo sapiens, UniProt P08253); assay: MMP-2 (gelatinase A) inhibitory activity, FITC-labeled type IV collagen degradation; assay type: biochemical; settings: 50% inhibition of collagen type IV degradation; activated pro MMP-2 from transfected COS-1 cells; 42° C., 4 h
T2 construct: made in house; host or cells: COS-1 cells transfected with human pro-MMP-2 cDNA (secreted into culture medium)
T2 sequence (P08253 110-660): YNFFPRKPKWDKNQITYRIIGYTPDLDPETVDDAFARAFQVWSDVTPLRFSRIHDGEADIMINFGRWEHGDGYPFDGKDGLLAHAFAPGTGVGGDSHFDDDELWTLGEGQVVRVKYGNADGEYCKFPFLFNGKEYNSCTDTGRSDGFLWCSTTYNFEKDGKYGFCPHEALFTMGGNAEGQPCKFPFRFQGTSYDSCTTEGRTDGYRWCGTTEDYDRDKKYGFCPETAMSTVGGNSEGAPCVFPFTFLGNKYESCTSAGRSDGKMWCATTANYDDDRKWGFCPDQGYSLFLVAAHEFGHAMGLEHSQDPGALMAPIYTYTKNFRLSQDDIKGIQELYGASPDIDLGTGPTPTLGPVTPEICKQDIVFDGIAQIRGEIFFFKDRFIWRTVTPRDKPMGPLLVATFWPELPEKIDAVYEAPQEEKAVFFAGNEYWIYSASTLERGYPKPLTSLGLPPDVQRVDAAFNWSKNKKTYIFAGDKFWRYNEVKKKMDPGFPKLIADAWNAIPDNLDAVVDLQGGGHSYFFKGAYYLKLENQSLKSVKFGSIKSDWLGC
Procedure: as §1, §2

IC50 (MMP-9 (gelatinase B)) [nM] | IC50 (MMP-2 (gelatinase A)) [nM] | Structure (SMILES)
0.72 | 4 | CCOc1ccc(OCCCC[C@H](CC(=O)NO)C(=O)N[C@@H](Cc2ccccc2)C(=O)NC)cc1 [Compound 45, N-[(2R)-2-(2'-Hydroxyamino-2'-oxo-ethyl)-6-[(4-ethoxy-phenyl)oxy]hexanoyl]-L-phenylalanine N-Methylamide]
160 | 250 | C=CCOc1ccc(OCCCC[C@H](CC(=O)NO)C(=O)N[C@@H](Cc2ccccc2)C(=O)NC)cc1 [Compound 46, N-[(2R)-2-(2'-Hydroxyamino-2'-oxo-ethyl)-6-[(4-allyloxy-phenyl)oxy]hexanoyl]-L-phenylalanine N-Methylamide]
0.41 | 1.3 | CNC(=O)[C@H](Cc1ccccc1)NC(=O)[C@H](CCCCOc1ccc(OC)cc1)CC(=O)NO [Compound 44, N-[(2R)-2-(2'-Hydroxyamino-2'-oxo-ethyl)-6-[(4-methoxyphenyl)oxy]hexanoyl]-L-phenylalanine N-Methylamide]
52 | 760 | CNC(=O)[C@@H](NC(=O)[C@H](CCc1ccc2cccccc1-2)CC(=O)NO)C(C)(C)C [Compound 34, N-[(2R)-2-(2'-Hydroxyamino-2'-oxo-ethyl)-4-(azulene-1-yl)-butyloyl]-L-tert-leucine N-Methylamide]
0.23 | 21 | COc1ccc(OCCC[C@H](CC(=O)NO)C(=O)N[C@H](C(=O)NC(C)(C)C)C(C)(C)C)cc1 [Compound 55, N-[(2R)-2-(2'-Hydroxyamino-2'-oxo-ethyl)-5-[(4-methoxyphenyl)oxy]-pentanoyl]-L-tert-leucine N-tert-Butylamide]
24 | 180 | CCOc1ccc(C[C@H](NC(=O)[C@H](CCc2ccc3cccccc2-3)CC(=O)NO)C(=O)NC)cc1 [Compound 36, (2S)-2-[(2R)-2-(2'-Hydroxyamino-2'-oxo-ethyl)-4-(azulene-1-yl)butyloyl]amino-3-(4-ethoxy)phenylpropanoylmethylamide]
2.3 | 13 | CNC(=O)[C@H](Cc1ccccc1)NC(=O)[C@H](CCOc1ccc(OC)cc1)CC(=O)NO [Compound 38, N-[(2R)-2-(2'-Hydroxyamino-2'-oxo-ethyl)-4-[(4-methoxyphenyl)oxy]butyloyl]-L-phenylalanine N-Methylamide]
1.2 | 11 | CNC(=O)[C@H](Cc1ccc(OC)cc1)NC(=O)[C@H](CCOc1ccc(OC)cc1)CC(=O)NO [Compound 47, (2S)-2-[(2R)-2-(2'-Hydroxyamino-2'-oxo-ethyl)-4-[(4-methoxyphenyl)oxy]-butyloyl]amino-3-(4-methoxy)phenylpropanoylmethylamide]
0.15 | 9 | CNC(=O)[C@H](Cc1ccc(OC)cc1)NC(=O)[C@H](CCCOc1ccc(OC)cc1)CC(=O)NO [Compound 48, (2S)-2-[(2R)-2-(2'-Hydroxyamino-2'-oxo-ethyl)-5-[(4-methoxyphenyl)oxy]-pentanoyl]amino-3-(4-methoxy)phenyl-propanoylmethylamide]
140 | 1600 | CNC(=O)[C@H](Cc1ccc(OC)cc1)NC(=O)[C@H](CCCOc1ccc(OC)cc1)CC(=O)OCc1oc(=O)oc1C [Compound 63, (2S)-2-[(2R)-2-(2'-(5-Methyl-2-oxo-1,3-dioxolen-4-yl)-methylene-oxy-2'-oxo-ethyl]-5-[(4-methoxyphenyl)oxy]-pentanoyl]amino-3-(4-methoxy)phenylpropanoylmethylamide]
0.14 | 0.97 | CCOc1ccc(OCCC[C@H](CC(=O)NO)C(=O)N[C@@H](Cc2ccccc2)C(=O)NC)cc1 [Compound 43, N-[(2R)-2-(2'-Hydroxyamino-2'-oxo-ethyl)-5-[(4-ethoxy-phenyl)oxy]pentanoyl]-L-phenylalanine N-Methylamide]
9.5 | 140 | CCOc1ccc(C[C@H](NC(=O)[C@H](CCCOc2ccc(OC)cc2)CC(=O)O)C(=O)NC)cc1 [Compound 22, (2S)-2-[(2R)-2-(1'-Carboxymethyl)-5-[(4-methoxyphenyl)-oxy]pentanoyl]amino-3-(4-ethoxy)phenylpropanoylmethylamide]
0.052 | 0.45 | COc1ccc(C[C@H](NC(=O)[C@H](CCCOc2ccc(OC)cc2)CC(=O)NO)C(=O)NCCS(N)(=O)=O)cc1 [Compound 50, 2-[(2S)-2-[(2R)-2-(2'-Hydroxyamino-2'-oxo-ethyl)-5-[(4-methoxyphenyl)oxy]-pentanoyl]amino-3-(4-methoxy)phenylpropanoyl]amino-ethanesulfonamide]
0.12 | 1 | CCOc1ccc(C[C@H](NC(=O)[C@H](CCCOc2ccc(OC)cc2)CC(=O)NO)C(=O)NC)cc1 [Compound 52, (2S)-2-[(2R)-2-(2'-Hydroxyamino-2'-oxo-ethyl)-5-[(4-methoxyphenyl)oxy]-pentanoyl]amino-3-(4-ethoxy)phenylpropanoylmethylamide]
28 | 200 | COc1ccc(OCCC[C@H](CC(=O)O)C(=O)N[C@H](C(=O)NC(C)(C)C)C(C)(C)C)cc1 [Compound 25, N-[(2R)-2-(1'-Carboxymethyl)-5-[(4-methoxyphenyl)oxy]pentanoyl]-L-tert-leucine N-tert-Butylamide]
0.32 | 3.2 | CCOc1ccc(C[C@H](NC(=O)[C@H](CCCCOc2ccc(OC)cc2)CC(=O)NO)C(=O)NC)cc1 [Compound 53, (2S)-2-[(2R)-2-(2'-Hydroxyamino-2'-oxo-ethyl)-6-[(4-methoxyphenyl)oxy]-hexanoyl]amino-3-(4-ethoxy)phenylpropanoylmethylamide]
14 | 100 | COc1ccc(OCCC[C@H](CC(=O)O)C(=O)N[C@@H](Cc2ccccc2)C(=O)NC(C)(C)C)cc1 [Compound 11]
52 | 160 | CNC(=O)[C@H](Cc1ccc(OC)cc1)NC(=O)[C@H](CCCCOc1ccc(OC)cc1)CC(=O)O [Compound 21, (2S)-2-[(2R)-2-(1'-Carboxymethyl)-6-[(4-methoxyphenyl)-oxy]hexanoyl]amino-3-(4-methoxy)phenylpropanoylmethylamide]
120 | 500 | CCOc1ccc(OCCC[C@H](CC(=O)OCc2oc(=O)oc2C)C(=O)N[C@@H](Cc2ccccc2)C(=O)NC)cc1 [Compound 62]
13 | 76 | COc1ccc(C[C@H](NC(=O)[C@H](CCCOc2ccc(OC)cc2)CC(=O)O)C(=O)NC(C)(C)C)cc1 [Compound 19, (2S)-2-[(2R)-2-(1'Carboxymethyl)-5-[(methoxyphenyl)oxy]pentanoyl]amino-3-(4-methoxy)phenylpropanoyl-tert-butylamide]
5.4 | 250 | CNC(=O)[C@H](Cc1ccc(OC)cc1)NC(=O)[C@H](CCCOc1ccc(OC)cc1)CC(=O)O [Compound 18]
7.2 | 140 | CNC(=O)[C@@H](NC(=O)[C@H](CCCOc1ccc(OC)cc1)CC(=O)O)C(C)(C)C [Compound 24, N-[(2R)-2-(1'-Carboxymethyl)-5-[(4-methoxyphenyl)oxy]pentanoyl]-L-tert-leucine N-Methylamide]
0.28 | 2.5 | CNC(=O)[C@H](Cc1ccc(OC)cc1)NC(=O)[C@H](CCCCOc1ccc(OC)cc1)CC(=O)NO [Compound 51, (2S)-2-[(2R)-2-(2'-Hydroxyamino-2'-oxo-ethyl)-6-[(4-methoxyphenyl)oxy]-hexanoyl]amino-3-(4-methoxy)phenylpropanoylmethylamide]
6.5 | 48 | COc1ccc(OCCC[C@H](CC(=O)O)C(=O)N[C@H](C(=O)NCCS(N)(=O)=O)C(C)(C)C)cc1 [Compound 26]
400 | 3200 | CNC(=O)[C@H](Cc1ccccc1)NC(=O)[C@H](CCc1ccc2cccccc1-2)CC(=O)NO [Compound 32, N-[(2R)-2-(2'-Hydroxyamino-2'-oxo-ethyl)-4-(azulene-1-yl)-butyloyl]-L-phenylanine N-Methylamide]
6800 | > 10000 | CNC(=O)[C@@H](NC(=O)[C@@H](CC(=O)NO)CC(C)(C)COC)C(C)(C)C [Compound 60, N-[(2R)-2-(2'-Hydroxyamino-2'-oxo-ethyl)-4,4-dimethyl-5-methoxy-pentanoyl]-L-tert-leucine N-Methylamide]
